Results on 23 compounds are retold here after patent US20250145594A1, “MODULATORS OF THE INTEGRATED STRESS PATHWAY” (Calico Life Sciences LLC, priority 2020, published 2025).

A value given as a limit tells only on which side of the number the result lay.

This test deals with ATF4 luciferase reporter in HEK293T cells. Briefly: ATF4-Luc assay (in vitro model of VWMD). In kind it is cell-based, human. Conditions: Homo sapiens, HEK-293T, 7 h, HEK293T cells carrying the ATF4 luciferase reporter, 1 μg/mL tunicamycin, One Glo luminescence. On the procedure:
In order to test exemplary compounds of the invention in a cellular context, a stable VWMD cell line was first constructed. The ATF4 reporter was prepared by fusing the human full-length ATF4 5′-UTR (NCBI Accession No. BC022088.2) in front of the firefly luciferase (FLuc) coding sequence lacking the initiator methionine as described in Sidrauski et al (eLife 2013). The construct was used to produce recombinant retroviruses using standard methods and the resulting viral supernatant was used to transduce HEK293T cells, which were then subsequently selected with puromycin to generate a stable cell line.
HEK293T cells carrying the ATF4 luciferase reporter were plated on polylysine coated 384-well plates (Greiner Bio-one) at 30,000 cells per well. Cells were treated the next day with 1 μg/mL tunicamycin and 200 nM of a compound of Formula (I) for 7 hours. Luminescence was measured using One Glo (Promega) as specified by the manufacturer. Cells were maintained in DMEM with L-glutamine supplemented with 10% heat-inactivated FBS (Gibco) and Antibiotic-Antimycotic solution (Gibco).
Table 4 below summarizes the EC50 data obtained using the ATF4-Luc assay for exemplary compounds of the invention.
For orientation: A reporter such as luciferase makes a cellular process visible.
Usually EC50 stands for the concentration needed to bring the measured effect to its halfway point. Turning to `O=C(NC12CC(n3cc(-c4ccc(OC(F)(F)F)cn4)cn3)(C1)C2)[C@H]1C[C@H](O)c2cc(Cl)ccc2O1` [Compound 545, (2R,4S)-6-chloro-4-hydroxy-N-(3-{4-[5-(trifluoromethoxy)pyridin-2-yl]-1H-pyrazol-1-yl}bicyclo[1.1.1]pentan-1-yl)-3,4-dihydro-2H-1-benzopyran-2-carboxamide], the EC50 is less than 10 nM. For `O=C(NC12CC(c3cn([C@H]4C[C@@H](OC(F)(F)F)C4)nn3)(C1)C2)[C@H]1C[C@@H](O)c2cc(Cl)ccc2O1` [Compound 315, (2R,4R)-6-chloro-4-hydroxy-N-(3-{1-[cis-3-(trifluoromethoxy)cyclobutyl]-1H-1,2,3-triazol-4-yl}bicyclo[1.1.1]pentan-1-yl)-3,4-dihydro-2H-1-benzopyran-2-carboxamide], the EC50 fell in the range of 10 to 50 nM. Regarding `Cc1cc(C)cc(OCC2CN(C34CC(NC(=O)[C@H]5CC(=O)c6cc(Cl)ccc6O5)(C3)C4)C(=O)O2)c1` (stereo partly drawn) [Compound 100, (2R)-6-chloro-N-(3-{5-[(3,5-dimethylphenoxy)methyl]-2-oxo-1,3-oxazolidin-3-yl}bicyclo[1.1.1]pentan-1-yl)-4-oxo-3,4-dihydro-2H-1-benzopyran-2-carboxamide], the EC50 was greater than 2000 nM. Take `O=C(COc1ccc(Cl)c(F)c1)NC12CCC(n3cc(OCCOC(F)(F)F)cn3)(C1)C2` [Compound 595, 2-(4-chloro-3-fluorophenoxy)-N-(4-{4-[2-(trifluoromethoxy)ethoxy]-1H-pyrazol-1-yl}bicyclo[2.1.1]hexan-1-yl)acetamide]: the EC50 lay in the range of 250 to 500 nM. Under `O=C(CO[C@H]1C[C@@H](OC(F)(F)F)C1)NC12CCC(NC(=O)[C@H]3C[C@@H](O)c4cc(C(F)(F)F)ccc4O3)(CC1)C[C@@H]2O` [Compound 460, (2R,4R)-4-hydroxy-N-[(3S)-3-hydroxy-4-(2-{[(1s,3R)-3-(trifluoromethoxy)cyclobutyl]oxy}acetamido)bicyclo[2.2.2]octan-1-yl]-6-(trifluoromethyl)-3,4-dihydro-2H-1-benzopyran-2-carboxamide] stands less than 10 nM; under `O=C(COc1ccc(C(F)(F)F)c(F)c1)NC12CC(n3cc(C(=O)N4CC[C@H](OC(F)(F)F)C4)cn3)(C1)C2` [Compound 621, 2-[3-fluoro-4-(trifluoromethyl)phenoxy]-N-(3-{4-[(3S)-3-(trifluoromethoxy)pyrrolidine-1-carbonyl]-1H-pyrazol-1-yl}bicyclo[1.1.1]pentan-1-yl)acetamide], less than 10 nM. On to `O=C(NC12CC(c3cnc(OCCOC(F)(F)F)o3)(C1)C2)[C@H]1C[C@@H](O)c2cc(Cl)c(F)cc2O1` [Compound 416, (2R,4R)-6-chloro-7-fluoro-4-hydroxy-N-(3-{2-[2-(trifluoromethoxy)ethoxy]-1,3-oxazol-5-yl}bicyclo[1.1.1]pentan-1-yl)-3,4-dihydro-2H-1-benzopyran-2-carboxamide], for which the EC50 is less than 10 nM. As for `O=C(NC12CC(n3cc4c(n3)CN(CCOC(F)(F)F)C4)(C1)C2)[C@H]1C[C@@H](O)c2cc(Cl)c(F)cc2O1` [Compound 512, (2R,4R)-6-chloro-7-fluoro-4-hydroxy-N-(3-{5-[2-(trifluoromethoxy)ethyl]-5,6-dihydropyrrolo[3,4-c]pyrazol-2(4H)-yl}bicyclo[1.1.1]pentan-1-yl)-3,4-dihydro-2H-1-benzopyran-2-carboxamide], the concentration giving a half-maximal response (EC50) lay in the range of 10 to 50 nM.

As to `O=C(NC12CC(n3cc(-c4ccc(OC(F)(F)F)cn4)cn3)(C1)C2)[C@@H]1C[C@H](O)c2cc(C(F)(F)F)ccc2O1` [Compound 338, (2S,4S)-4-hydroxy-N-(3-{4-[5-(trifluoromethoxy)pyridin-2-yl]-1H-pyrazol-1-yl}bicyclo[1.1.1]pentan-1-yl)-6-(trifluoromethyl)-3,4-dihydro-2H-1-benzopyran-2-carboxamide], the EC50 was less than 10 nM. Consider `CN(CCOC(F)(F)F)c1cnn(C23CC(NC(=O)[C@H]4C[C@@H](O)c5cc(Cl)ccc5O4)(C2)C3)c1` [Compound 411, (2R,4R)-6-chloro-4-hydroxy-N-[3-(4-{methyl[2-(trifluoromethoxy)ethyl]amino}-1H-pyrazol-1-yl)bicyclo[1.1.1]pentan-1-yl]-3,4-dihydro-2H-1-benzopyran-2-carboxamide], for which the EC50 was in the range of 10 to 50 nM. On to `O=C(NC12CC(n3cc(-c4ccc(OC(F)(F)F)cn4)cn3)(C1)C2)[C@H]1C[C@H](O)c2cc(C(F)(F)F)ccc2O1` [Compound 551, (2R,4S)-4-hydroxy-N-(3-{4-[5-(trifluoromethoxy)pyridin-2-yl]-1H-pyrazol-1-yl}bicyclo[1.1.1]pentan-1-yl)-6-(trifluoromethyl)-3,4-dihydro-2H-1-benzopyran-2-carboxamide], for which the EC50 is less than 10 nM.

`O=C(NC12CC(n3cc(C(=O)N4CC[C@H](OC(F)(F)F)C4)cn3)(C1)C2)[C@@H]1C[C@@H](O)c2cc(Cl)ccc2O1` [Compound 324, (2S,4R)-6-chloro-4-hydroxy-N-(3-{4-[(3S)-3-(trifluoromethoxy)pyrrolidine-1-carbonyl]-1H-pyrazol-1-yl}bicyclo[1.1.1]pentan-1-yl)-3,4-dihydro-2H-1-benzopyran-2-carboxamide]: the half-maximal effective concentration (EC50) was less than 10 nM.

In the case of `O=C(NC12CC(n3cc(-c4ccc(OC(F)(F)F)cn4)cn3)(C1)C2)[C@H]1C[C@@H](O)c2cc(F)ccc2O1` (single isomer, unassigned) [Compound 475], the EC50 is less than 10 nM. As to `COCCOc1cnn(C23CC(NC(=O)[C@H]4C[C@@H](O)c5cc(Cl)ccc5O4)(C2)C3)c1` [Compound 426, (2R,4R)-6-chloro-4-hydroxy-N-{3-[4-(2-methoxyethoxy)-1H-pyrazol-1-yl]bicyclo[1.1.1]pentan-1-yl}-3,4-dihydro-2H-1-benzopyran-2-carboxamide], the EC50 lay within 250 to 500 nM. Turning to `COc1ccc2nn([C@H]3CC[C@H](NC(=O)COc4ccc(Cl)c(Cl)c4)CC3)cc2n1` [Compound 596, 2-(3,4-dichlorophenoxy)-N-[(1r,4r)-4-(5-methoxy-2H-pyrazolo[4,3-b]pyridin-2-yl)cyclohexyl]acetamide], the EC50 is less than 10 nM. For `O=C(N[C@H]1CC[C@H](n2cc(-c3ccc(C(F)(F)F)cn3)cn2)CC1)[C@H]1C[C@@H](O)c2cc(Cl)ccc2O1` [Compound 577, (2R,4R)-6-chloro-4-hydroxy-N-[(1r,4R)-4-{4-[5-(trifluoromethyl)pyridin-2-yl]-1H-pyrazol-1-yl}cyclohexyl]-3,4-dihydro-2H-1-benzopyran-2-carboxamide], the EC50 was less than 10 nM. Turning to `O=C(CO[C@H]1C[C@@H](OC(F)(F)F)C1)NC12CC(NC(=O)[C@H]3C[C@H](O)c4cc(Cl)c(Cl)cc4O3)(C1)C2` [Compound 495, (2R,4S)-6,7-dichloro-4-hydroxy-N-[3-(2-{[(1s,3S)-3-(trifluoromethoxy)cyclobutyl]oxy}acetamido)bicyclo[1.1.1]pentan-1-yl]-3,4-dihydro-2H-1-benzopyran-2-carboxamide], the EC50 was less than 10 nM. For the compound `O=C(NC12CC(c3ccnc(OCCCOC(F)(F)F)c3)(C1)C2)[C@H]1C[C@@H](O)c2cc(Cl)ccc2O1` [Compound 428, (2R,4R)-6-chloro-4-hydroxy-N-(3-{2-[3-(trifluoromethoxy)propoxy]pyridin-4-yl}bicyclo[1.1.1]pentan-1-yl)-3,4-dihydro-2H-1-benzopyran-2-carboxamide], the concentration giving a half-maximal response (EC50) is less than 10 nM.

On to `O=C(NC12CC(c3cnc(OCCOC(F)(F)F)o3)(C1)C2)[C@H]1C[C@@H](O)c2cc(Cl)ccc2O1` [Compound 414, (2R,4R)-6-chloro-4-hydroxy-N-(3-{2-[2-(trifluoromethoxy)ethoxy]-1,3-oxazol-5-yl}bicyclo[1.1.1]pentan-1-yl)-3,4-dihydro-2H-1-benzopyran-2-carboxamide], for which the EC50 is less than 10 nM. As to `O=C(NC12CC(n3cc(-c4ccc(C(F)(F)F)cn4)cn3)(C1)C2)[C@H]1C[C@H](O)c2cc(C(F)(F)F)c(F)cc2O1` [Compound 640, (2R,4S)-7-fluoro-4-hydroxy-6-(trifluoromethyl)-N-(3-{4-[5-(trifluoromethyl)pyridin-2-yl]-1H-pyrazol-1-yl}bicyclo[1.1.1]pentan-1-yl)-3,4-dihydro-2H-1-benzopyran-2-carboxamide], the EC50 is less than 10 nM. Under `COc1ncc(-c2cnn(C34CC(NC(=O)[C@@H]5C[C@H](O)c6cc(Cl)ccc6O5)(C3)C4)c2)cn1` [Compound 319, (2S,4S)-6-chloro-4-hydroxy-N-{3-[4-(2-methoxypyrimidin-5-yl)-1H-pyrazol-1-yl]bicyclo[1.1.1]pentan-1-yl}-3,4-dihydro-2H-1-benzopyran-2-carboxamide] stands 250 to 500 nM; under `COCc1ccc2nn(C34CC(NC(=O)[C@H]5C[C@@H](O)c6cc(Cl)ccc6O5)(C3)C4)cc2c1` [Compound 510, (2R,4R)-6-chloro-4-hydroxy-N-{3-[5-(methoxymethyl)-2H-indazol-2-yl]bicyclo[1.1.1]pentan-1-yl}-3,4-dihydro-2H-1-benzopyran-2-carboxamide], 10 to 50 nM; under `O=C(NC12CC(n3cc(N4CC[C@@H](OC(F)(F)F)C4)cn3)(C1)C2)[C@H]1C[C@@H](O)c2cc(C(F)(F)F)ccc2O1` [Compound 579, (2R,4R)-4-hydroxy-N-(3-{4-[(3R)-3-(trifluoromethoxy)pyrrolidin-1-yl]-1H-pyrazol-1-yl}bicyclo[1.1.1]pentan-1-yl)-6-(trifluoromethyl)-3,4-dihydro-2H-1-benzopyran-2-carboxamide], less than 10 nM.
